Source: patent publication US5656622A, “15,15-dialkyl-substituted derivatives of estradiol” (Schering Aktiengesellschaft, priority 1993, dated 1997)

Tests used:
[1] = system: 17β-hydroxysteroid dehydrogenase from human placenta; assay: stability against 17β-hydroxysteroid dehydrogenase, incubation with placenta microsomes; type: in vitro ADME; conditions: NADP 0.5 mmol
Protocol: To determine the stability of estradiol (A) itself as well as of a compound according to the invention, i.e., 15,15-dimethyl-estra-1,3,5(10)-triene-3,17β-diol (B), against 17β-hydroxysteroid dehydrogenase from human placenta, the test substances are incubated with placenta microsomes in the presence of NADP (nicotinamide-adenine-dinucleotide phosphate; 0.5 mmol).
The steroids (initial substrate and product) are extracted and separated by HPLC. For evaluation, the quotients are formed from the electronically integrated peak areas of the corresponding reaction product (namely the assumed 17-keto compound) and the initial substance and plotted against the incubation time (FIG. 1).

[2] = system: estrogen receptor; assay: estrogen receptor binding test; conditions: tissue from rat uteri, 3H-estradiol as reference substance
Protocol: The estrogenic effectiveness of the compounds according to the invention can be shown by the results of the estrogen receptor binding test. In this known in vitro test, tissue from rat uteri is prepared and radioactively-labeled ^3 H-estradiol is used as reference substance. The compound according to the invention 15,15-dimethyl-estra-1,3,5(10)-triene-3,17β-diol accordingly has a competition factor K of 1.5.

Question: With `CC1(C)C[C@H](O)[C@@]2(C)CC[C@@H]3c4ccc(O)cc4CC[C@H]3[C@H]12` [15,15-dimethylestra-1,3,5(10)-triene-3,17β-diol] as the molecule, how does the “conversion to the 17-keto compound by 17β-hydroxysteroid dehydrogenase (quotient of HPLC peak areas product/initial substance against incubation time, FIG. 1)” value [1] read?
Answer: Its value is “only moderate substrate”.

Question: And the “competition factor K” value [2]?
Answer: Its value is 1.5.
